Broadly, the IC50 is the concentration that inhibits the measured activity by half.

Where two headings read alike, the source gives them in different places.

Assay [1] deals with RORγ ligand binding domain (Homo sapiens (Human), UniProt P51449). The assay is described as follows: biochemical. In kind it is biochemical. On the procedure:
Various concentrations of test ligands in 0.1 microlitres DMSO were dispensed to assay plates using an Labcyte Echo acoustic dispenser. Two pre-mixes were prepared and incubated for 1 hr at room temp in the dark.

In assay [2] the test system is TH17 cell differentiation (human CD4+CCR6+ T cells). Kind of assay: Human Th17 cell differentiation assay (IL-17A ELISA). In kind it is cell-based. Particulars: 96 h, IL-17A in extracellular media by ELISA, 4 days, mean, read-out: Inhibition of TH17 cell differentiation-Mean IC50. On the technique in general: In an ELISA, binding on a coated surface is turned into a signal by an enzyme label.

Sequence of RORγ ligand binding domain (P51449 whole entry, looked up, the tested form may be a part): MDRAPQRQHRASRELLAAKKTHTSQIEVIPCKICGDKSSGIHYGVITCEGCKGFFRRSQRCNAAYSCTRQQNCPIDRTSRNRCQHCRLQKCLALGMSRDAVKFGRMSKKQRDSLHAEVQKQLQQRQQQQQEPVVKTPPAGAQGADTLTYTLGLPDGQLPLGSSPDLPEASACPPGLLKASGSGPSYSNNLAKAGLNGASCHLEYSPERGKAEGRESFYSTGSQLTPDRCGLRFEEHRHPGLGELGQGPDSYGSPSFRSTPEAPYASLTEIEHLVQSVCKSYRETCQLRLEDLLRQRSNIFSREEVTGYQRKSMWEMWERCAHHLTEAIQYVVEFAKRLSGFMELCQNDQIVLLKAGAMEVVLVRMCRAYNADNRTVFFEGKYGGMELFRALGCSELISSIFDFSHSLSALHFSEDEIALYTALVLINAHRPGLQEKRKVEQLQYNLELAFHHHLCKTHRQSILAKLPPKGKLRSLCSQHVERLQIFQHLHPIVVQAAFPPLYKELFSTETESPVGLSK

For `O=C(O)c1ccc(-n2cc(C(=O)c3c(F)cccc3C(F)(F)F)c3cccc(F)c32)c(F)c1` [Comparator 5, 3-fluoro-4-[7-fluoro-3-[2-fluoro-6-(trifluoromethyl)benzoyl]-1H-indol-1-yl]benzoic acid, reference compound], the IC50 in assay [1] (read-out: RORγ FRET-Mean IC50) stood at 111 nM; in assay [2], 47 nM. With `O=C(O)c1ccc(-n2cc(C(=O)c3c(Cl)cccc3C3CC3)c3cccc(F)c32)c(F)c1` [Compound 4, 4-[3-(2-chloro-6-cyclopropyl-benzoyl)-7-fluoro-1H-indol-1-yl]-3-fluoro-benzoic acid], the results for the IC50 in assay [1] and in assay [2] were 42.9 nM and 31.9 nM, respectively. For `O=C(O)c1ccc(-n2cc(C(=O)c3c(F)cccc3C(F)(F)F)c3cccc(F)c32)cc1` [Comparator 2, 4-[7-fluoro-3-[2-fluoro-6-(trifluoromethyl)benzoyl]-1-H-indol-1-yl]benzoic acid, reference compound], the IC50 in assay [1] (read-out: RORγ FRET-Mean IC50) worked out at 61.9 nM; in assay [2], 48.2 nM. Take `O=C(O)c1ccc(-n2cc(C(=O)c3c(Cl)cccc3C(F)(F)F)c3ccccc32)cc1` [Comparator 1, 4-[3-[2-chloro-6-(trifluoromethyl)benzoyl]-1H-indol-1-yl]benzoic acid, reference compound]: the 50% inhibitory concentration (IC50) in assay [2] came to 45.3 nM. As for `O=C(O)c1ccc(-n2cc(C(=O)c3c(Cl)cccc3C(F)(F)F)c3cccc(F)c32)cc1O` [Compound 2, 4-[3-[2-chloro-6-(trifluoromethyl)benzoyl]-7-fluoro-indol-1-yl]-2-hydroxy-benzoic acid], the IC50 in assay [1] (read-out: RORγ FRET-Mean IC50) was determined as 17.9 nM; in assay [2], 12.6 nM. The matching figures for `O=C(O)c1ccc(-n2cc(C(=O)c3c(Cl)cccc3C(F)(F)F)c3cccc(F)c32)c(F)c1` [Compound 3, 4-[3-[2-chloro-6-(trifluoromethyl)benzoyl]-7-fluoro-indol-1-yl]-3-fluoro-benzoic acid]: 37.9 nM and 15 nM.

These data come from patent publication US9861612B2 (priority 2014, dated 2018).
